Results on 22 molecules are retold here after patent publication US10995101B2, “2-oxo-thiazole derivatives as A2A inhibitors and compounds for use in the treatment of cancers” (iTeos Therapeutics SA, priority 2017, dated 2021).

For orientation: IC50 means the point on the concentration scale where inhibition reaches its midpoint. The low end stands for higher potency, the high end for lower potency.

This test concerns the target A2A receptor (Homo sapiens, UniProt P29274). The test can be described thus: Inhibition of cAMP production in HEK cells. The test is classed as cell-based. The note with it: HEK-293 cells with A2A receptor. As to the method:
When the A2A receptor is activated, is induces the production of cAMP.
HEK-293 cells with a stable transfection of A2A receptor were bought from PerkinElmer® (# ES-011-C). […] Fresh media without the selection marker was added on the day immediately before the experiment to stop selection pressure.
Stimulation buffer b) mimics the human situation by increasing the amount of albumin present in the assay.
Compounds of the present invention were diluted 100× in either of the buffers depending on the assay performed. […] The total volume of the reaction was 20 μl (10 μl of cells, 5 μl of antagonist and 5 μl of agonist). The reaction was finalized by adding 10 μl of 4× EU-cAMP tracer working solution and 10 μl of 4× ULight-anti-cAMP working solution. The TR-FRET signal was measured after 1 hour using a Spectramax Paradigm (Molecular Devices).

[1] abbreviates: IC50 (nM) (3 nM NECA as agonist, 0.1% BSA), 3 nM NECA as agonist, 0.1% BSA.
The mark [2] stands for this setting: IC50 (nM) (5 nM NECA as agonist, 2% HSA), 5 nM NECA as agonist, 2% HSA.
The mark [3] stands for this setting: IC50 (nM) (5 μM Adenosine as agonist, 2.0% HSA), 5 μM Adenosine as agonist, 2.0% HSA.

Sequence of A2A receptor (P29274 whole entry): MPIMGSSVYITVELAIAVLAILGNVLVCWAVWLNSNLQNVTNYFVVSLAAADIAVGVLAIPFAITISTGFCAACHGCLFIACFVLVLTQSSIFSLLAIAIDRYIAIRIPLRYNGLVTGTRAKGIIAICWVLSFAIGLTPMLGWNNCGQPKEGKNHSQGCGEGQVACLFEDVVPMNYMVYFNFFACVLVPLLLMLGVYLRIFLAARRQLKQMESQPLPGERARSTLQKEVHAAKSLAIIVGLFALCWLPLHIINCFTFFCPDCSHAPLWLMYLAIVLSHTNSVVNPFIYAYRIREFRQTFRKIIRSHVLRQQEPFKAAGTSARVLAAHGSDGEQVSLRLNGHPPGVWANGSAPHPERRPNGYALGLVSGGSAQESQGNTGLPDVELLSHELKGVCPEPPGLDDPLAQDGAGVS

As for `CC(Oc1ccc(N2CCN(CCn3c(=O)sc4c3nc(N)n3nc(-c5ccco5)nc43)CC2)c(F)c1)C(=O)O` (stereo not shown) [Compound 37, 2-(4-(4-(2-(5-amino-8-(furan-2-yl)-2-oxothiazolo[5,4-e][1,2,4]triazolo[1,5-c]pyrimidin-3(2H)-yl)ethyl)piperazin-1-yl)-3-fluorophenoxy)propanoic acid], the IC50 by setting is: under setting [1], 0.8 nM; under setting [2], 9 nM; under setting [3], 398 nM.

As for `Nc1nc2c(sc(=O)n2CCN2CCN(c3ccc(S(=O)(=O)N4CCNCC4)cc3F)CC2)c2nc(-c3ccco3)nn12` [Compound 28, 5-amino-3-(2-(4-(2-fluoro-4-(piperazin-1-ylsulfonyl)phenyl)piperazin-1-yl)ethyl)-8-(furan-2-yl)thiazolo[5,4-e][1,2,4]triazolo[1,5-c]pyrimidin-2(3H)-one], the IC50 runs as follows: under setting [1], 0.2 nM; under setting [2], 4 nM; under setting [3], 115 nM.

Consider `CNCCN(C)C(=O)COc1ccc(N2CCN(CCn3c(=O)sc4c3nc(N)n3nc(-c5ccco5)nc43)CC2)c(F)c1` [Compound 58, 2-(4-(4-(2-(5-amino-8-(furan-2-yl)-2-oxothiazolo[5,4-e][1,2,4]triazolo[1,5-c]pyrimidin-3(2H)-yl)ethyl)piperazin-1-yl)-3-fluorophenoxy)-N-methyl-N-(2-(methylamino)ethyl)acetamide], for which the 50% inhibitory concentration (IC50) by setting is: under setting [1], 0.3 nM; under setting [2], 1 nM; under setting [3], 41 nM.

For `Nc1nc2c(sc(=O)n2CCN2CCN(c3c(F)cc(OCC(=O)O)cc3F)CC2)c2nc(-c3ccco3)nn12` [Compound 36, 2-(4-(4-(2-(5-amino-8-(furan-2-yl)-2-oxothiazolo[5,4-e][1,2,4]triazolo[1,5-c]pyrimidin-3(2H)-yl)ethyl)piperazin-1-yl)-3,5-difluorophenoxy)acetic acid], the IC50 under setting [1] stood at 0.7 nM, the IC50 under setting [2] was 8 nM and the IC50 under setting [3] was found to be 260 nM.

Take `Nc1nc2c(sc(=O)n2CCN2CCN(c3cc(OCCCC(=O)O)c(F)cc3F)CC2)c2nc(-c3ccco3)nn12` [Compound 65, 4-(5-(4-(2-(5-amino-8-(furan-2-yl)-2-oxothiazolo[5,4-e][1,2,4]triazolo[1,5-c]pyrimidin-3(2H)-yl)ethyl)piperazin-1-yl)-2,4-difluorophenoxy)butanoic acid]: the IC50 under setting [1] was 0.6 nM, the IC50 under setting [2] was found to be 27 nM and the half-maximal inhibitory concentration (IC50) under setting [3] came to 494 nM.

Turning to `CN(C)CCNC(=O)c1cc(N2CCN(CCn3c(=O)sc4c3nc(N)n3nc(-c5ccco5)nc43)CC2)c(F)cc1F` [Compound 81, 5-(4-(2-(5-amino-8-(furan-2-yl)-2-oxothiazolo[5,4-e][1,2,4]triazolo[1,5-c]pyrimidin-3(2H)-yl)ethyl)piperazin-1-yl)-N-(2-(dimethylamino)ethyl)-2,4-difluorobenzamide], under setting [1], the IC50 came out at 117 nM.

`Nc1nc2c(sc(=O)n2CCN2CCN(c3cc(OC[C@@H](O)CO)c(F)cc3F)CC2)c2nc(-c3ccco3)nn12` [Compound 127, (S)-5-amino-3-(2-(4-(5-(2,3-dihydroxypropoxy)-2,4-difluorophenyl)piperazin-1-yl)ethyl)-8-(furan-2-yl)thiazolo[5,4-e][1,2,4]triazolo[1,5-c]pyrimidin-2(3H)-one] registered a half-maximal inhibitory concentration (IC50) under setting [1] of 0.5 nM and an IC50 under setting [3] of 35 nM.

Consider `NCCOc1ccc(N2CCN(CCn3c(=O)sc4c3nc(N)n3nc(-c5ccco5)nc43)CC2)cc1` [Compound 13, 5-amino-3-(2-(4-(4-(2-aminoethoxy)phenyl)piperazin-1-yl)ethyl)-8-(furan-2-yl)thiazolo[5,4-e][1,2,4]triazolo[1,5-c]pyrimidin-2(3H)-one], for which the half-maximal inhibitory concentration (IC50) by setting is: under setting [1], 0.6 nM; under setting [2], 2 nM; under setting [3], 63 nM.

`Nc1nc2c(sc(=O)n2CCN2CCN(c3ccc(OCCCC(=O)O)cc3F)CC2)c2nc(-c3ccco3)nn12` [Compound 41, 4-(4-(4-(2-(5-amino-8-(furan-2-yl)-2-oxothiazolo[5,4-e][1,2,4]triazolo[1,5-c]pyrimidin-3(2H)-yl)ethyl)piperazin-1-yl)-3-fluorophenoxy)butanoic acid]: the 50% inhibitory concentration (IC50) by setting is: under setting [1], 0.8 nM; under setting [2], 14 nM; under setting [3], 423 nM.

On to `Nc1nc2c(sc(=O)n2CCN2CCN(c3ccc(C(=O)NCCN4CCOCC4)cc3F)CC2)c2nc(-c3ccco3)nn12` [Compound 106, 4-(4-(2-(5-amino-8-(furan-2-yl)-2-oxothiazolo[5,4-e][1,2,4]triazolo[1,5-c]pyrimidin-3(2H)-yl)ethyl)piperazin-1-yl)-3-fluoro-N-(2-morpholinoethyl)benzamide], for which the IC50 is 0.3 nM under setting [1] and 205 nM under setting [3].

Under setting [1], `NC(=O)COc1ccc(N2CCN(CCn3c(=O)sc4c3nc(N)n3nc(-c5ccco5)nc43)CC2)cc1` [Compound 11, 2-(4-(4-(2-(5-amino-8-(furan-2-yl)-2-oxothiazolo[5,4-e][1,2,4]triazolo[1,5-c]pyrimidin-3(2H)-yl)ethyl)piperazin-1-yl)phenoxy)acetamide] had an IC50 of 2 nM.

`Nc1nc2c(sc(=O)n2CCN2CCN(c3cccc(OCCO)c3)CC2)c2nc(-c3ccco3)nn12` [Compound 23, 5-amino-8-(furan-2-yl)-3-(2-(4-(3-(2-hydroxyethoxy)phenyl)piperazin-1-yl)ethyl)thiazolo[5,4-e][1,2,4]triazolo[1,5-c]pyrimidin-2(3H)-one]: the IC50 under setting [1] turned out to be 0.6 nM.

`NC(=O)c1cccc(N2CCN(CCn3c(=O)sc4c3nc(N)n3nc(-c5ccco5)nc43)CC2)c1` [Compound 22, 3-(4-(2-(5-amino-8-(furan-2-yl)-2-oxothiazolo[5,4-e][1,2,4]triazolo[1,5-c]pyrimidin-3(2H)-yl)ethyl)piperazin-1-yl)benzamide]: the concentration for half-maximal inhibition (IC50) stood at 1.4 nM under setting [1], 6 nM under setting [2] and 352 nM under setting [3].

Take `C[C@@H](Oc1ccc(N2CCN(CCn3c(=O)sc4c3nc(N)n3nc(-c5ccco5)nc43)CC2)c(F)c1)C(=O)O` (single isomer, unassigned) [Compound 53]: the IC50 by setting is: under setting [2], 4 nM; under setting [3], 127 nM.

For the molecule `CS(=O)(=O)c1ccc(N2CCN(CCn3c(=O)sc4c3nc(N)n3nc(-c5ccco5)nc43)CC2)cc1` [Compound 20, 5-amino-8-(furan-2-yl)-3-(2-(4-(4-(methylsulfonyl)phenyl)piperazin-1-yl)ethyl)thiazolo[5,4-e][1,2,4]triazolo[1,5-c]pyrimidin-2(3H)-one], the IC50 by setting is: under setting [1], 1.9 nM; under setting [2], 352 nM.

`CC(C)(Oc1cc(N2CCN(CCn3c(=O)sc4c3nc(N)n3nc(-c5ccco5)nc43)CC2)c(F)cc1F)C(=O)O` [Compound 59, 2-(5-(4-(2-(5-amino-8-(furan-2-yl)-2-oxothiazolo[5,4-e][1,2,4]triazolo[1,5-c]pyrimidin-3(2H)-yl)ethyl)piperazin-1-yl)-2,4-difluorophenoxy)-2-methylpropanoic acid] showed an IC50 under setting [1] of 0.9 nM, a 50% inhibitory concentration (IC50) under setting [2] of 21 nM and a half-inhibitory concentration (IC50) under setting [3] of 1070 nM.

Turning to `C[S+]([O-])c1ccc(N2CCN(CCn3c(=O)sc4c3nc(N)n3nc(-c5ccco5)nc43)CC2)cc1` (stereo not shown) [Compound 21, 5-amino-8-(furan-2-yl)-3-(2-(4-(4-(methylsulfinyl)phenyl)piperazin-1-yl)ethyl)thiazolo[5,4-e][1,2,4]triazolo[1,5-c]pyrimidin-2(3H)-one], the IC50 is, setting by setting: under setting [1], 1.6 nM; under setting [2], 52 nM; under setting [3], 1310 nM.

Under setting [1], `CN(C)CCOc1ccc(N2CCN(CCn3c(=O)sc4c3nc(N)n3nc(-c5ccco5)nc43)CC2)cc1` [Compound 17, 5-amino-3-(2-(4-(4-(2-(dimethylamino)ethoxy)phenyl)piperazin-1-yl)ethyl)-8-(furan-2-yl)thiazolo[5,4-e][1,2,4]triazolo[1,5-c]pyrimidin-2(3H)-one] gave an IC50 of 1 nM. That is a single-digit nanomolar value.

`C[C@@H](Oc1cc(N2CCN(CCn3c(=O)sc4c3nc(N)n3nc(-c5ccco5)nc43)CC2)c(F)cc1F)C(=O)O` (single isomer, unassigned) [Compound 61]: the half-maximal inhibitory concentration (IC50) is, setting by setting: under setting [1], 0.9 nM; under setting [2], 15 nM; under setting [3], 810 nM.

For `Nc1nc2c(sc(=O)n2CCN2CCN(c3ccc(OCCN4CCOCC4)cc3)CC2)c2nc(-c3ccco3)nn12` [Compound 16, 5-amino-8-(furan-2-yl)-3-(2-(4-(4-(2-morpholinoethoxy)phenyl)piperazin-1-yl)ethyl)thiazolo[5,4-e][1,2,4]triazolo[1,5-c]pyrimidin-2(3H)-one], the IC50 amounted to 3.2 nM under setting [1] and 14 nM under setting [2].

Turning to `Nc1nc2c(sc(=O)n2CCN2CCN(c3ccncn3)CC2)c2nc(-c3ccco3)nn12` [Compound 76, 5-amino-8-(furan-2-yl)-3-(2-(4-(pyrimidin-4-yl)piperazin-1-yl)ethyl)thiazolo[5,4-e][1,2,4]triazolo[1,5-c]pyrimidin-2(3H)-one], the IC50 came out at 5 nM under setting [1] and 151 nM under setting [2].

With `CS(=O)(=O)c1ccc(N2CCN(CCn3c(=O)sc4c3nc(N)n3nc(-c5ccco5)nc43)CC2)c(F)c1` [Compound 29, 5-amino-3-(2-(4-(2-fluoro-4-(methylsulfonyl)phenyl)piperazin-1-yl)ethyl)-8-(furan-2-yl)thiazolo[5,4-e][1,2,4]triazolo[1,5-c]pyrimidin-2(3H)-one], the half-inhibitory concentration (IC50) under setting [1] came to 0.4 nM, the IC50 under setting [2] was found to be 11 nM and the half-maximal inhibitory concentration (IC50) under setting [3] was 350 nM.
